Data on 7 compounds can be found in patent publication US20100022402A1, “Methods and Compositions for the In Vitro High-Throughput Detection of Protein/Protein Interactions” (priority 2004, published 2010).

Where two headings read alike, the source gives them in different places.

For assay [1], the system named is λD-Acid:λD-Base association. Kind of assay: Titration of λD-Acid:λD-Base phage association by free competitors (loss of double resistant multilysogen formation). The assay is classed as binding. The conditions noted are these: for concentration found to inhibit the λD-Acid:λD-Base interaction: free amino acid; for cross-inhibition of λD-Acid:λD-Base: non-partner free proteins; for IC50, inhibition of Acid/Base association: MOI of 0.0025, aptamer 0.001 μM to 5 μM, FIG. 6; for Kd: free synthetic peptide competing with aptamer interaction, read-out: apparent KD (concentration of free peptide that results in an IC50). The method, then: Lambda display phages are used to co-infect cells at an MOI of 0.0025. In the presence of increasing concentrations of the Acidic (triangles) or Basic (square) Aptamer (0.001 μM to 5 μM), titration of Acid/Base association is scored by the loss of double resistant multilysogen formation. The point representing the maximum number of lysogens for this given MOI.
(§1) Display phages are assayed for their ability to associate with other phages bearing a potential binding partner, with a non-binding partner and with a non-display D vector phage (i.e. λA2 and λA3). The production of double antibiotic resistant (Cml^r/Kan^r) multilysogen E. coli LE392 is used to mark positive fusion D display protein-protein interaction. First, the phages are combined to yield a chosen MOI (a typical initial range is 0.002-0.04), and allowed to associate for 5 minutes at room temperature (RT) prior to dilution with 220 uL of Salted Association Buffer (SAB; 20 mM Tris.HCLpH7.4, 10 mM CaCl2, 10 mM MgCl2 and 100 mM NaCl). After 10 minutes at room temperature, 1×10^8 of fresh log-phase E. coli LE392 recovered in [LB+0.4% maltose+10 mM CaCl2] is added. Phage-phage association, co-infection and antibiotic gene expression are allowed to proceed for 45 min-1 h at RT, followed by plating on agar supplemented with 10^ug/mL Cml+30^ug/mL Kan. Plates are incubated overnight at 32° C. for lysogen formation.

The test system of assay [2] is λD-CUE:λD-Ubiquitin association. The experiment in a line: Titration of λD-CUE:λD-Ubiquitin phage association by free proteins (loss of double resistant multilysogen formation). It is filed as binding. Particulars: for titration of λD-CUE:λD-Ubiquitin by non-partner peptides: acidic or basic aptamers. The method, then: Lambda display phages are used to co-infect cells at an MOI of 0.04. In the presence of increasing concentrations of the wtUbiquitin (diamonds), wt CUE (squares) or mutant CUEM419D (triangles) protein is added to the phage pair, and positive λD-CUE:λD-Ubiquitin association is scored by the loss of double resistant multilysogen formation. The results are tabulated as the number of colonies counted, with the point representing the maximum number of lysogens for this given MOI.
as §1

Another assay deals with E. coli LE392 cells. The experiment in a line: Protein association assay: lysogen formation after infection with vector or display phages. It is filed as cell-based. The conditions noted are these: single input phage, MOI 0.1. The method, then:
as §1

The next assay addresses T1, CUE (Saccharomyces cerevisiae, UniProt P54787).
T1 construct: The CUE domain (50 amino acid residues), as characterized by the conserved MFP and LL motifs
T1 sequence (P54787 408-451 limits assumed): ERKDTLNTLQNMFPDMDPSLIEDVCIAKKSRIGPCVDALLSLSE
The conditions noted are these: CUE binds itself via an alpha helix interface; read-out: Kd (dimerization); cited from earlier work.

The next assay concerns the target monoubiquitin (Homo sapiens, UniProt P0CG47). The conditions noted are these: cited from earlier work.

`N=C(N)NCCC[C@H](N)C(=O)O` [Arginine]: in assay [1], the “concentration found to inhibit the λD-Acid:λD-Base interaction” value is listed as 4.6 mM.

For the compound `N[C@@H](CCC(=O)O)C(=O)O` [Glutamic acid], the “concentration found to inhibit the λD-Acid:λD-Base interaction” value in assay [1] stood at 0.679 mM.

In the case of “CUEM419D: non-binding mutant CUE protein (KKIEENERKDTLNTLQNDFPDMDPSLIEDVCIAKKSRIGPCVDALLSLSE)”, the “cross-inhibition of λD-Acid:λD-Base” value in assay [1] was “no cross-inhibition”. Besides, in assay [2] (MOI of 0.04, FIG. 7), the “titration point of λD-CUE:λD-Ubiquitin association” value is listed as “no titration point”. Further, the “ability to challenge the λD-CUE:λD-Ubiquitin interaction” value in assay [2] (even at a concentration of 1 mM) is “unable to challenge”.

Consider GEGEGEGE [Acidic Aptamer, [Gly-Glu]4], for which, in assay [1], the “IC50, inhibition of Acid/Base association” value was about 0.01 µM and the Kd turned out to be 0.01 µM. The “titration of λD-CUE:λD-Ubiquitin by non-partner peptides” value in assay [2] is reported as “nor is λD-CUE:λD-Ubiquitin titrated”.

Take GRGRGRGR [Basic Aptamer, [Gly-Arg]4]: in assay [1], the “IC50, inhibition of Acid/Base association” value was about 0.01 µM and the Kd is 0.01 µM. For the same compound, in assay [2], the “titration of λD-CUE:λD-Ubiquitin by non-partner peptides” value is on record as “nor is λD-CUE:λD-Ubiquitin titrated”.

For Ubiquitin, in the assay with E. coli LE392 cells, the “Number of Cml^r/Kan^r Cells” value came out at 0 and the “Number of Kan^r Cells” value is listed as 3 × 10^6.

Regarding “wt CUE: free wild type CUE domain (50 amino acids) of Vsp9p (KKIEENERKDTLNTLQNMFPDMDPSLIEDVCIAKKSRIGPCVDALLSLSE)”, the “cross-inhibition of λD-Acid:λD-Base” value in assay [1] is listed as “no cross-inhibition”. Moreover, the Kd with CUE was 1000 µM; with monoubiquitin (CUE as a dimer (dimericCue:Ubiquitin), read-out: apparent KD, CUE binding Ubiquitin), 1.2 µM; with monoubiquitin (CUE as a monomer, read-out: KD, CUE binding monoubiquitin), 20 µM; in assay [2] (free protein, read-out: apparent KD, competition of λD-Cue:λD-Ubiquitin pair), 0.002 µM.
